From patent EP0001978A1, “A derivative of thiazolidine-4-carboxylic acid, method for the preparation and pharmaceutical compositions comprising the compound” (Santen Pharmaceutical Co., Ltd, priority 1977, dated 1979) come the findings set out here.

Usually inhibition stands for the change of the read-out against control, counted positive when it falls. Read a low inhibition as a weak effect.

For one data set, the system named is male ddy-SLC strain rats. The data set can be described thus: Acute toxicity test (Miller and Tainter method). Format: in vivo. The note with it: oral, subcutaneous or intravenous; 30% suspension or 30% solution (pH 7.0); result in words. As for the experimental part: Acute toxicity of the compound of this invention, (4R)-3-[(2S)-3-mercapto-2-methylpropanoyl]-4-thiazolidinecarboxylic acid, is shown in Table 3.
The male ddy-SLC strain rats (5 weeks of age, weighing […]) were placed in a breeding room of constant temperature and humidity (24+1°C, 55+5%) and fed freely pellet diet (CE-2, Clea Japan Inc.) and water for a week. The rats showing the normal growth were selected for the experiment.
30% suspension or 30% solution (pH 7.0) was administered orally, subcutaneously or intravenously and the toxicity was calculated by the Miller and Tainter method.

The target of data set [1] is T1, angiotensin I-converting enzyme (Cavia porcellus, UniProt H0UWL7).
T1 construct: Preparation of isolated guinea-pig ileum was made and suspended in the organ bath; from tissue; host or cells: isolated guinea-pig ileum
T1 sequence (H0UWL7 33-1302): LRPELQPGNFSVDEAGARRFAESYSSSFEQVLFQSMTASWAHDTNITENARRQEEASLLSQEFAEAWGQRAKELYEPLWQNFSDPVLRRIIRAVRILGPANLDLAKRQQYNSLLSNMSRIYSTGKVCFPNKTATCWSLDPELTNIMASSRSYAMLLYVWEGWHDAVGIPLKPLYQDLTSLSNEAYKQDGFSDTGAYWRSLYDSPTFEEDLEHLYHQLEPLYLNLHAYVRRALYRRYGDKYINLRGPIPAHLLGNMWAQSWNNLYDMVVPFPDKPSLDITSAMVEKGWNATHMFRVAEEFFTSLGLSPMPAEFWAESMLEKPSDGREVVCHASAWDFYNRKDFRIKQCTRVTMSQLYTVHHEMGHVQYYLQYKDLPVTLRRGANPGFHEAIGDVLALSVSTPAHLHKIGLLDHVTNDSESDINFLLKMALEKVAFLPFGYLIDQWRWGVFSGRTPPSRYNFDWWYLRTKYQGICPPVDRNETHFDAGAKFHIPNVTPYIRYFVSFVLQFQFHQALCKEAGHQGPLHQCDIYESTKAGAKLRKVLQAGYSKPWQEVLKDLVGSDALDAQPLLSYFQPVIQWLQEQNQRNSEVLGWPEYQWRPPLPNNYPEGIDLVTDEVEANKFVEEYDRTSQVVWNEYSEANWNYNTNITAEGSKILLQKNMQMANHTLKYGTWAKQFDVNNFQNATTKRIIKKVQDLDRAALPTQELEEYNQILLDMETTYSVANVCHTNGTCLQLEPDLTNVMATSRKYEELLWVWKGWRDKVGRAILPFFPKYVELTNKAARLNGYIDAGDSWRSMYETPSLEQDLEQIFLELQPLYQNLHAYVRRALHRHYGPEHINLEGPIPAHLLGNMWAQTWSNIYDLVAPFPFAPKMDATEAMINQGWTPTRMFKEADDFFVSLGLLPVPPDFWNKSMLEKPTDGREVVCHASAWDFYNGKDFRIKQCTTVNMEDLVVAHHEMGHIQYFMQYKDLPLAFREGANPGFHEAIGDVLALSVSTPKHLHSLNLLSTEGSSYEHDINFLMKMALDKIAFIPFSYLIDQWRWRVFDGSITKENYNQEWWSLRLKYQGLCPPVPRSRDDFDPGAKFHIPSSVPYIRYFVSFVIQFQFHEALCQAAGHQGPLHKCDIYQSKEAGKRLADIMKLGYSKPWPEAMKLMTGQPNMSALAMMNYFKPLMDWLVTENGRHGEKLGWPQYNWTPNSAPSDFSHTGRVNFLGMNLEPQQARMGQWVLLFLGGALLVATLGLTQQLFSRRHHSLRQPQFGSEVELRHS
Nature of the data set: Bioassay: contractile response of isolated guinea-pig ileum to angiotensin I. The note with it: angiotensin I 0.125µg/ml, compound added 5 minutes before; for inhibition at 1 µM: final concentration 10^-6 M. Format: cell-based. As for the experimental part: In the present study, we adopted the bioassay for contractile response of iselated guinea-pig ileum to angiotensin I.
(§1) Measurement of inhibitory activity of angiotensin I-converting enzyme Preparation of isolated guinea-pig ileum was made and suspended in the organ bath containing 20ml of Tyrode's solution gassed 95% 02 + 5% CO2 at 30°C. The contraction induced by angiotensin I (0.125µg/ml) given at intervals of 10 minutes was recorded on a recticerder (Nihon Koden) for 90 seconds using FD pick up (ST-IT-H, Nihon Koden) .
(§2) The test compounds were added to the bath 5 minutes before the addition of angiotensin I.
The inhibitory activity of angiotensin I-converting enzyme was calculated by the following formula: [formula] • A: Contractile intensity of angiotensin I before addition of the compound • B: Contractile intensity of angiotensin I after addition of the compound

Another data set concerns the target T2, kininase II (Cavia porcellus, UniProt H0UWL7).
T2 construct: Preparation of isolated guinea-pig ileum was made and suspended in the organ bath; from tissue; host or cells: isolated guinea-pig ileum
T2 sequence (H0UWL7 33-1302): T1 sequence (H0UWL7 33-1302)
The data set can be described thus: Augmentation of contractile response of isolated guinea-pig ileum to bradykinin. Format: cell-based. As for the experimental part:
as §1, §2
(§3) The influence of the compounds on the contractile response of isolated guinea-pig ileum to angiotensin II was examined in the same manner as above. Further, augmentation of the contractile response to bradykinin by the test compounds was studied by the above-mentioned method from the fact that kininase II which destroys bradykinin is thought to be identical with angiotensin I-converting enzyme.

A further data set concerns angiotensin II. Nature of the data set: Contractile response of isolated guinea-pig ileum to angiotensin II. The note with it: Cavia porcellus, final concentration 10^-5 M. Format: cell-based. Here is the method:
as §1, §2, §3

Take `C[C@H](CS)C(=O)N1CSC[C@H]1C(=O)O` [Compound A, (4R)-3-[(2S)-3-mercapto-2-methylpropanoyl]-4-thiazolidinecarboxylic acid]: the Acute toxicity entry with male ddy-SLC strain rats is given as “lower toxicity”. Besides, the inhibition at 1 µM in data set [1] was found to be 72.6%. For the same compound, the inhibition at 0.1 µM in data set [1] (final concentration 10^-7 M) turned out to be 38.1%. Moreover, the “Augmentation to BK (%)” value came out at 125.3% at kininase II (final concentration 10^-7 M), 60.4% at kininase II (final concentration 10^-8 M) and 22.1% at kininase II (final concentration 10^-9 M). In the data set with angiotensin II, this compound showed an inhibition at 10 µM of 0%.

Regarding `C[C@@H](CS)C(=O)N1CSC[C@H]1C(=O)O` [Compound B, (4R)-3-[(2R)-3-mercapto-2-methylpropanoyl]-4-thiazolidinecarboxylic acid, reference compound], the inhibition at 10 µM is 59.3% in data set [1] (final concentration 10^-5 M) and 0% with angiotensin II. In data set [1], the inhibition at 1 µM was found to be 24.7%. Besides, the “Augmentation to BK (%)” value on kininase II (final concentration 10^-7 M) is given as 78.3%; on kininase II (final concentration 10^-8 M) it was 16.8%.
